# Source: patent publication US11834450B2, “Compounds having ((3-nitrophenyl)sulfonyl)acetamide as BCL-2 inhibitors” (Eil Therapeutics, Inc., priority 2021, dated 2023)
# Where two headings read alike, the source gives them in different places.
# Legend:
# BCL-2 = target: T1, BCL-2 (Homo sapiens, UniProt P10415); test: BCL-2 TR-FRET Assay (primary PPI inhibition); type: binding; conditions: 60 min incubation; read-out: BCL2 (IC50 code, BCL-2 TR-FRET)
# T1 construct: purchased BPS Bioscience #50222
# BCL-XL = target: T2, BCL-XL (Homo sapiens, UniProt Q07817); test: BCL-XL TR-FRET Assay (primary PPI inhibition); type: binding; conditions: 60 min incubation; read-out: BCLxL (IC50 code, BCL-XL TR-FRET)
# T2 construct: purchased BPS Bioscience #50223
# Method: BCL-XL TR-FRET Assay (BPS Bioscience, #50223) Assay Condition: The following assay concentrations and times were used: 10.5 ng BCL-XL, 5 ul of 1:100 anti-His Tb-labeled donor, 5 ul of 1:100 Dye-labeled acceptor, 5 ul of 1:80 BCL-XL Peptide Ligand, and 2 ul of test compound, with 60 min incubation time. The results of the assay were read using a Clariostar (BMG Labtech) plate reader with the following parameters: TR FRET, 340 ex/620 and 665 em; 60 μsec Delay; and 500 μsec integration.
# RS4-11 cells = test: Cell viability assay RS4-11 (CellTiter-Glo); type: cell-based; conditions: Homo sapiens, read-out: RS4-11 (CC50 code)
# Method: (§1) Assay Condition: Used culture medium for HEK293-DMEM (PanEco, Cat #C420), for the rest of the cell lines—culture medium RPMI-1640 (PanEco, Cat #C363).
# (§2) Assay Procedure: Compounds were prepared as 200× stocks with serial dilution in 100% DMSO with a final concentration of 1×. Dispersed 40 μl in 384-well plates at a concentration of 2000 cells per well for HEK293 and at a concentration of 4000 cells per well for the rest of the cell lines using a robotic station Biomek (Beckman). Before adding compounds, the cells were incubated at 37° C. (HEK293 were incubated for a day before adding compounds).
# (§3) A dilution plate was prepared by pouring 78 μl of the appropriate culture medium using a robotic station Biomek (Beckman). Sequentially, using a robotic station, 2 μl of substances were taken and added to 78 μl of culture medium (dilution of compounds 40×). Took from there 10 μl and added to the plates to the cells (dilution of compounds 5×). The plates were incubated for 3 days at a temperature 37° C. After 3 days, 10 μl of CellTiter-Glo (Promega) was added to the cells and the luminescence was measured.
# MOLT-4 cells = test: Cell viability assay MOLT-4 (CellTiter-Glo); type: cell-based; conditions: Homo sapiens, read-out: MOLT-4 (CC50 code)
# Method: as §1, §2, §3
# [1] = Cell viability assay HEK293 (CellTiter-Glo); type: cell-based; conditions: human, HEK293 cells, read-out: HEK293 (CC50 code)
# Method: as §1, §2, §3
# [2] = 72 h, RS4-11 cells, 3 days, CellTiter-Glo
# [3] = 72 h, MOLT-4 cells, 3 days, CellTiter-Glo
# T1 sequence (P10415 whole entry): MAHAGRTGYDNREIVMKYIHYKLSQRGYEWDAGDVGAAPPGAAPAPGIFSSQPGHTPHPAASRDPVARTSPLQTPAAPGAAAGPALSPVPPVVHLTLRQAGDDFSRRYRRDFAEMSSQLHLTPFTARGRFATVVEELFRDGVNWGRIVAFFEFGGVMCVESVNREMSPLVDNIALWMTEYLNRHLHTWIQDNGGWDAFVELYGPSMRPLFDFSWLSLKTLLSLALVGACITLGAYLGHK
# T2 sequence (Q07817 whole entry): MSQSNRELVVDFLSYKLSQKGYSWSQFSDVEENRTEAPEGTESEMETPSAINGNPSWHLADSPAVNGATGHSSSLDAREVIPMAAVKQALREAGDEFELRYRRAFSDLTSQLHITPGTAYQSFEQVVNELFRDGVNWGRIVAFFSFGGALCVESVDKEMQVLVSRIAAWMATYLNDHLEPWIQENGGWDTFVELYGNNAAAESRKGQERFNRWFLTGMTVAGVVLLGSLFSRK
Structure (SMILES),IC50 (BCL-2) [µM],IC50 (BCL-XL) [µM],CC50 (RS4-11 cells; [2]) [µM],CC50 (MOLT-4 cells; [3]) [µM],CC50 at 3 days [1] [µM],"CC50 (RS4-11 cells; RS4-11, 72 h) [µM]","CC50 (MOLT-4 cells; MOLT-4, 72 h) [µM]"
"O=C(NS(=O)(=O)c1ccc(NCC2CCOCC2)c([N+](=O)[O-])c1)c1ccc(N2CCC(CN3C(=O)C4(CCCC4)C3c3ccc(Cl)cc3)CC2)cc1Oc1cnc2[nH]ccc2c1 (centres unmarked) [Compound 1, 4-[4-[[1-(4-chlorophenyl)-3-oxo-2-azaspiro[3.4]octan-2-yl]methyl]-1-piperidyl]-N-[3-nitro-4-(tetrahydropyran-4-ylmethylamino)phenyl]sulfonyl-2-(1H-pyrrolo[2,3-b]pyridin-5-yloxy)benzamide]",0.01 to 0.05,> 4,> 0.2,2 to 10,> 25,–,–
"O=C(NS(=O)(=O)c1ccc(NCC2CCOCC2)c([N+](=O)[O-])c1)c1ccc(N2CCC(CN3C(=O)C4(CCCC4)C3c3ccc(Cl)cc3)CC2)cc1Oc1ccc2[nH]ccc2c1 (centres unmarked) [Compound 10, 4-[4-[[1-(4-chlorophenyl)-3-oxo-2-azaspiro[3.4]octan-2-yl]methyl]-1-piperidyl]-2-(1H-indol-5-yloxy)-N-[3-nitro-4-(tetrahydropyran-4-ylmethylamino)phenyl]sulfonyl-benzamide]",> 0.05,–,–,–,≤ 10,> 0.2,> 10
"O=C(NS(=O)(=O)c1ccc(NCC2CCOCC2)c([N+](=O)[O-])c1)c1ccc(N2CCN(C(c3ccccc3)c3ccc(F)cc3)CC2)cc1Oc1ccc2[nH]ccc2c1 (centres unmarked) [Compound 12, 4-[4-[(4-fluorophenyl)-phenyl-methyl]piperazin-1-yl]-2-(1H-indol-5-yloxy)-N-[3-nitro-4-(tetrahydropyran-4-ylmethylamino)phenyl]sulfonyl-benzamide]",> 0.05,> 4,> 0.2,> 10,> 25,–,–
"O=C(NS(=O)(=O)c1ccc(NCC2CCOCC2)c([N+](=O)[O-])c1)c1ccc(N2CCN(C(c3ccccc3)c3ccc(Cl)cc3)CC2)cc1Oc1ccc2[nH]ccc2c1 (centres unmarked) [Compound 14, 4-[4-[(4-chlorophenyl)-phenyl-methyl]piperazin-1-yl]-2-(1H-indol-5-yloxy)-N-[3-nitro-4-(tetrahydropyran-4-ylmethylamino)phenyl]sulfonyl-benzamide]",> 0.05,–,–,–,–,–,–
"CCCC(c1ccc(Br)cc1)N1CCN(c2ccc(C(=O)NS(=O)(=O)c3ccc(NCC4CCOCC4)c([N+](=O)[O-])c3)c(Oc3ccc4[nH]ccc4c3)c2)CC1 (centres unmarked) [Compound 15, 4-[4-[1-(4-bromophenyl)butyl]piperazin-1-yl]-2-(1H-indol-5-yloxy)-N-[3-nitro-4-(tetrahydropyran-4-ylmethylamino)phenyl]sulfonyl-benzamide]",> 0.05,> 4,–,–,–,–,–
"O=C(NS(=O)(=O)c1ccc(NCC2CCOCC2)c([N+](=O)[O-])c1)c1ccc(N2CCN(C(c3ccc(F)cc3)c3ccc(F)cc3)CC2)cc1Oc1ccc2[nH]ccc2c1 [Compound 16, 4-[4-[bis(4-fluorophenyl)methyl]piperazin-1-yl]-2-(1H-indol-5-yloxy)-N-[3-nitro-4-(tetrahydropyran-4-ylmethylamino)phenyl]sulfonyl-benzamide]",> 0.05,> 4,> 0.2,> 10,> 25,–,–
"O=C(NS(=O)(=O)c1ccc(NCC2CCOCC2)c([N+](=O)[O-])c1)c1ccc(N2CCN(C(c3ccccc3)c3ccccc3)CC2)cc1Oc1cnc2[nH]ccc2c1 [Compound 17, 4-(4-benzhydrylpiperazin-1-yl)-N-[3-nitro-4-(tetrahydropyran-4-ylmethylamino)phenyl]sulfonyl-2-(1H-pyrrolo[2,3-b]pyridin-5-yloxy)benzamide]",> 0.05,> 4,> 0.2,> 10,> 25,–,–
"O=C(NS(=O)(=O)c1ccc(NCC2CCOCC2)c([N+](=O)[O-])c1)c1ccc(N2CCN(C(c3ccccc3)c3ccccc3)CC2)cc1Oc1ccc2[nH]ccc2c1 [Compound 19, 4-(4-benzhydrylpiperazin-1-yl)-2-(1H-indol-5-yloxy)-N-[3-nitro-4-(tetrahydropyran-4-ylmethylamino)phenyl]sulfonyl-benzamide]",> 0.05,> 4,> 0.2,> 10,> 25,–,–
"O=C(NS(=O)(=O)c1ccc(NCC2CCOCC2)c([N+](=O)[O-])c1)c1ccc(N2CCC(CN3CC4(CCCC4)C3c3ccccc3)CC2)cc1Oc1cnc2[nH]ccc2c1 (centres unmarked) [Compound 27, N-[3-nitro-4-(tetrahydropyran-4-ylmethylamino)phenyl]sulfonyl-4-[4-[(3-phenyl-2-azaspiro[3.4]octan-2-yl)methyl]-1-piperidyl]-2-(1H-pyrrolo[2,3-b]pyridin-5-yloxy)benzamide]",> 0.05,2 to 4,–,–,> 25,> 0.2,2 to 10
"O=C(NS(=O)(=O)c1ccc(NCC2CCOCC2)c([N+](=O)[O-])c1)c1ccc(N2CCN(C[C@H]3Cc4ccccc4CN3C(=O)c3cccs3)CC2)cc1Oc1cnc2[nH]ccc2c1 [Compound 34, N-[3-nitro-4-(tetrahydropyran-4-ylmethylamino)phenyl]sulfonyl-2-(1H-pyrrolo[2,3-b]pyridin-5-yloxy)-4-[4-[[(3R)-2-(thiophene-2-carbonyl)-3,4-dihydro-1H-isoquinolin-3-yl]methyl]piperazin-1-yl]benzamide]",0.01 to 0.05,2 to 4,–,–,–,–,–
"CC1=CC[C@@H](c2ccc(Cl)cc2)[C@H](CN2CCN(c3ccc(C(=O)NS(=O)(=O)c4ccc(NCC5CCOCC5)c([N+](=O)[O-])c4)c(Oc4cnc5[nH]ccc5c4)c3)CC2)C1 [Compound 60, 4-[4-[[(1R,6R)-6-(4-chlorophenyl)-3-methyl-cyclohex-3-en-1-yl]methyl]piperazin-1-yl]-N-[3-nitro-4-(tetrahydropyran-4-ylmethylamino)phenyl]sulfonyl-2-(1H-pyrrolo[2,3-b]pyridin-5-yloxy)benzamide]",> 0.05,> 4,–,–,–,–,–
"O=C(NS(=O)(=O)c1ccc(NCC2CCOCC2)c([N+](=O)[O-])c1)c1ccc(N2CCC(CN3CCCCC3c3ccc(Cl)cc3)CC2)cc1Oc1cccc(F)c1 (centres unmarked) [Compound 62, 4-[4-[[2-(4-chlorophenyl)-1-piperidyl]methyl]-1-piperidyl]-2-(3-fluorophenoxy)-N-[3-nitro-4-(tetrahydropyran-4-ylmethylamino)phenyl]sulfonyl-benzamide]",> 0.05,≤ 2,> 0.2,2 to 10,10 to 25,–,–
"O=C(NS(=O)(=O)c1ccc(NCC2CCOCC2)c([N+](=O)[O-])c1)c1ccc(N2CCC(CN3CCCCC3c3ccc(Cl)cc3)CC2)cc1Oc1cncc(CO)c1 (centres unmarked) [Compound 64, 4-[4-[[2-(4-chlorophenyl)-1-piperidyl]methyl]-1-piperidyl]-2-[[5-(hydroxymethyl)-3-pyridyl]oxy]-N-[3-nitro-4-(tetrahydropyran-4-ylmethylamino)phenyl]sulfonyl-benzamide]",> 0.05,> 4,> 0.2,> 10,10 to 25,–,–
"CC1=CC[C@@H](CN2CCN(c3ccc(C(=O)NS(=O)(=O)c4ccc(NCC5CCOCC5)c([N+](=O)[O-])c4)c(Oc4cnc5[nH]ccc5c4)c3)CC2)[C@@H](c2ccc(Cl)cc2)C1 [Compound 71, 4-[4-[[(1R,6S)-6-(4-chlorophenyl)-4-methyl-cyclohex-3-en-1-yl]methyl]piperazin-1-yl]-N-[3-nitro-4-(tetrahydropyran-4-ylmethylamino)phenyl]sulfonyl-2-(1H-pyrrolo[2,3-b]pyridin-5-yloxy)benzamide]",0.01 to 0.05,> 4,–,–,–,–,–
"O=C(NS(=O)(=O)c1ccc(NCC2CCOCC2)c([N+](=O)[O-])c1)c1ccc(N2CCN(C[C@@H]3CC(F)(F)CN3c3ccc(Cl)cc3)CC2)cc1Oc1cnc2[nH]ccc2c1 [Compound 81, 4-[4-[[(2S)-1-(4-chlorophenyl)-4,4-difluoro-pyrrolidin-2-yl]methyl]piperazin-1-yl]-N-[3-nitro-4-(tetrahydropyran-4-ylmethylamino)phenyl]sulfonyl-2-(1H-pyrrolo[2,3-b]pyridin-5-yloxy)benzamide]",–,–,> 0.2,2 to 10,10 to 25,–,–
